In patent publication US4543256A, “(-)-10,1L Methylenedioxy-N-N-propylnoraporphine and methods employing it for inhibiting the effects of epileptic seizures and for prevention and treatment of duodenal ulcers” (Northeastern University, priority 1982, dated 1985):
Where a name gives a salt, the structure may show the parent alone. Read-outs that look alike come from different tables or passages of the source.

Key:
rats [1] = test: Locomotor (general motor) activity, electronic activity monitor; type: in vivo, rat (male Sprague-Dawley)
Experimental: (§1) Male Sprague-Dawley (Charles River Labs.) rats (initially 175-200 g) were housed four per cage, with free access to food and water, under controlled lighting (on 7:00 a.m. to 7:00 p.m.), constant temperature 21°-23° C. and controlled humidity (40-50%). Aporphines were administered, as described below, freshly dissolved in 1 mM citric acid mixed with 0.9% (w/v) saline (1:4, vols.); this solvent was also used as a vehicle ("placebo") control. Haloperidol was given in the same medium; 2-diethyl aminoethyl-2,2 diphenylvalerate HCl (SKF-525A) was given in saline.
Locomotor activity was evaluated by use of a printing electronic activity monitor (EAM, Stoelting Co., Chicago, IL) within a sound-attenuated chamber, typically for 60 min., as described previously (Stewart, Campbell, Sperk and Baldessarini, 1979, Psychopharmacology 60 281-289; Campbell and Baldessarini, 1981a, Psychopharmacology 73:219-222.
(§2) In all experiments except those which evaluated the time-course of drug effects, rats were given an injection of vehicle and then allowed to rest for 15 min. to adapt to nonspecific arousal effects, prior to a second injection of test agent (or placebo) and immediate behavioral testing. Behavioral data were evaluated by Student's t-test and are always expressed as mean ±SEM.
Data are mean values ±SEM (N=4 to 8 rats per condition). Animals were pretreated with SKF-525A (40 mg/kg, i.p.) or its vehicle 30 min before MDO-NPA (in the doses noted, from 0 to 3 mg/kg, i.p.). Activity was then monitored electronically for an hour after the low doses of MDO-NPA (data in counts/hour), or rated for stereotypy every 10 min for an hour after higher doses. N.D. indicates "not determined." (*) Indicates a significant difference by t-test between control and oxidase inhibitor-pretreated rats (p<0.01).
Data are mean values ±SEM (N=3 to 6 rats per condition) for effects of seven aporphine compounds (R=substituents, keyed to the structure above). Full chemical names for all compounds are provided in Methods. Ratings are expressed as percent of the maximum possible score (100%)=18.0) of stereotypy (Placebo-injected controls yielded scores of 4.4±2.5%); and as the percent of control locomotor activity (100%=430±86 counts/hr). Data are provided for a dose of 10 mg/kg (i.p.), although doses of 1 and 5 mg/kg were also tested.

rats [2] = test: Stereotyped behavior of rats (rating scale; score, onset and duration); type: in vivo, rat (male Sprague-Dawley); conditions: for Stereotypy (percent of the maximum possible score): 100%=18.0, placebo 4.4±2.5%, N=3 to 6; for Stereotypy Score: rated one hour, maximum 18, N=6, mean ±SEM; for Duration of Effect (stereotypy): complete when scores ≤3; for stereotypy scores: NPA 3 mg/kg i.p., N=6
Experimental: as §1
Stereotyped behavior was evaluated by a trained observer according to a rating scale method reported previously (Campbell and Baldessarini, 1981a). Briefly, the ratings were as follows: 0, no stereotypy, normal locomotion; 1, discontinuous sniffing, reduced locomotion; 2, continuous sniffing, only periodic exploration; 3, continuous sniffing, mouth movements, infrequent, exploratory activity, Ratings were made each 10 min. by observation for 30 sec, typically for 60 min. (maximum score=18.0/hour).
as §2
Data are mean values ±SEM for N=6 rats per group given doses of each aporphine (1mg/kg/, or approximately 3 umole/kg) by orogastric intubation (P.O.), or subcutaneous (S.C.) or intraperitoneal (I.P.) injection. Stereotypy was rated for one hour as described in Methods and duration is defined as complete when scores diminished to ≤3 (out of a maximum possible score of 18).
Data are mean values ±SEM (N=4 to 8 rats per condition). […] N.D. indicates "not determined." (*) Indicates a significant difference by t-test between control and oxidase inhibitor-pretreated rats (p<0.01).
Stereotypy was rated for 60 min as described in Methods. Data are means SEM (stereotypy scores, when 18=maximum in 1 hour) for N=6 rats per group; (*) indicates p<0.0001 by t test.
Data are mean values ±SEM (N=3 to 6 rats per condition) for effects of seven aporphine compounds (R=substituents, keyed to the structure above). Full chemical names for all compounds are provided in Methods. […] Data are provided for a dose of 10 mg/kg (i.p.), although doses of 1 and 5 mg/kg were also tested.

Adenylate cyclase = Adenylate cyclase stimulation (cAMP) in rat striatal homogenates; type: biochemical; conditions: 50 μM; control (no addition) 2.38 ± 0.14; p < 0.01; N=4
Excerpt: of cAMP in rat striatal homogenates; inhibition of binding of

[3] = in vivo, cited from earlier work
duodenal ulcers = test: Cysteamine-induced duodenal ulcer in the rat; conditions: for Duodenal Ulcer Intensity (Scale: 0-3): control 1.8; for Duodenal Ulcer Incidence (Positive/Total): control 10/12
gastric acid output = conditions: rats given cysteamine or propionitrile; previous studies; cited from earlier work
[4] = 10 mg/kg i.p.; 100%=430±86 counts/hr; N=3 to 6
[5] = 50 μg/100g s.c. once daily seven days
[6] = 100 μg/100g s.c. once daily seven days
[7] = SKF-525A 40 mg/kg i.p. alone (MDO-NPA dose 0)

Compound: CCCN1CCc2cccc3c2[C@H]1Cc1c([N+](=O)[O-])cc2c(c1-3)OCO2 [8-Nitro-MDO--NPA]
- Locomotion (percent of control locomotor activity) (rats [1]; [4]): 74.4 ± 9.8%
- Stereotypy (percent of the maximum possible score) (rats [2]; 10 mg/kg i.p.): 4.4 ± 2.5%

Compound: CCCN1CCc2cccc3c2[C@H]1Cc1ccc(O)c(O)c1-3 [NPA, N-n-Propylnorapomorphine, reference compound]
- minimal effective dose (rats [1]; Rattus norvegicus, ip, read-out: dose producing increases in general motor activity): > 2 µmol/kg
- motor activity at lower doses (below 2 μmoles/kg) (rats [1]; i.p.): no significant effect
- Adenylate cyclase stimulation (cAMP) (Adenylate cyclase): 5.67 ± 0.28 pmol/assay
- oral bioavailability ([3]; po): poor oral bioavailability
- duration of action [3]: short duration of action
- Duodenal Ulcer Intensity (Scale: 0-3) (duodenal ulcers; [5]): 1.1
- Duodenal Ulcer Incidence (Positive/Total) (duodenal ulcers; [5]): 2/9
- Duodenal Ulcer Intensity (Scale: 0-3) (duodenal ulcers; [6]): 0.9
- Duodenal Ulcer Incidence (Positive/Total) (duodenal ulcers; [6]): 6/9
- effect of a single high dose on duodenal ulcers (duodenal ulcers; single high dose): active
- Stereotypy Score (rats [2]; 1 mg/kg I.P.): 17.5 ± 1.0
- Duration of Effect (stereotypy) (rats [2]; 1 mg/kg I.P.): 70 ± 10 min
- Stereotypy Score (rats [2]; 1 mg/kg P.O.): 0
- Duration of Effect (stereotypy) (rats [2]; 1 mg/kg P.O.): 0 min
- Stereotypy Score (rats [2]; 1 mg/kg S.C.): 17.5 ± 0.8
- Duration of Effect (stereotypy) (rats [2]; 1 mg/kg S.C.): 72 ± 6 min
- stereotypy scores (rats [2]; controls (vehicle pretreated)): 17.4±0.2
- stereotypy scores (rats [2]; oxidase-inhibited (SKF-525A 40 mg/kg i.p.)): 17.0±0.3
- dependence of duration of action on dose (rats [2]; i.p.): much less tendency for duration to increase with dose
- duration of stereotyped behavioral effects vs other agents (rats [2]; i.p., for MDO-NPA at doses above 1 μmole/kg): about equal to, or slightly greater than that of APO

Compound: (-) 10, 11-Butylidene-2-dioxy-N-n-propylnoraporphine. HCl [Methyl-ethyl MDO--NPA]
- Stereotypy (rats [2]; 10 mg/kg i.p.): weak stereotypic activity
- duration of stereotypic activity (rats [2]; 10 mg/kg i.p.): about 60 min
- onset of stereotypic activity delayed (rats [2]; 10 mg/kg i.p.): about 30 min
- Stereotypy (percent of the maximum possible score) (rats [2]; 10 mg/kg i.p.): 31.5 ± 1.9%

Compound: CCCC(C(=O)OCCN(CC)CC)(c1ccccc1)c1ccccc1 [SKF-525A, 2-diethyl aminoethyl-2,2 diphenylvalerate HCl, reference compound]
- Activity (rats [1]; [7]): 422 ± 28 counts/hour
- Stereotypy (rats [2]; [7]): 0

Compound: CC(C)(C)C1(O)CCN2CC3c4ccccc4CCc4cccc(c43)C2C1 (single isomer, unassigned; (+)) [(+)-butaclamol, reference compound]
- effect on the beneficial effect of NPA and MDO-NPA (duodenal ulcers; combined with NPA or MDO-NPA): reversed the beneficial effect of NPA and MDO-NPA
- effect on cysteamine-induced duodenal ulcers (duodenal ulcers; rats given cysteamine): aggravated the experimental duodenal ulcers

Compound: CN1CCc2cccc3c2[C@H]1Cc1ccc2c(c1-3)OCO2 [MDO-APO]
- excitatory effects (rats [1]; 10 mg/kg i.p.): relatively weak and inconsistent excitatory effects
- inhibition of locomotor activity (rats [1]; 10 mg/kg i.p.): significant effect (p 0.01 by t-test) to inhibit locomotor activity
- Stereotypy (rats [2]; 10 mg/kg i.p.): weak and inconsistent stereotypy (not significant statistically)
- behavioral effects after oral administration (rats [2]; 1 to 5 mg/kg oral): no significant behavioral effects

Compound: CCCCCC1(C)Oc2ccc3c(c2O1)-c1cccc2c1C(C3)N(CCC)CC2.Cl (single isomer, unassigned; (-)) [Methyl-pentyl-MDO--NPA, (-) 10,11-Heptylidene-2-dioxy-N-n-propylnoraporphine-HCl]
- Locomotion (percent of control locomotor activity) (rats [1]; [4]): 86.1 ± 22.3%
- Stereotypy (percent of the maximum possible score) (rats [2]; 10 mg/kg i.p.): 11.1 ± 5.7%

Compound: CN1C[C@H](CC#N)C[C@@H]2c3cccc4[nH]c(Cl)c(c34)C[C@H]21 [lergotrile]
- effect on output of gastric acid (gastric acid output): diminished the output of gastric acid

Compound: CN1CCc2cccc3c2[C@H]1Cc1ccc(O)c(O)c1-3 [APO, apomorphine, reference compound]
- minimal effective dose (rats [1]; Rattus norvegicus, ip; read-out: dose producing increases in general motor activity): > 2 µmol/kg
- motor activity at lower doses (below 2 μmoles/kg) (rats [1]; i.p.): no significant effect
- duration of action [3]: short duration of action
- Stereotypy Score (rats [2]; 1 mg/kg I.P.): 16.5 ± 2.4
- Duration of Effect (stereotypy) (rats [2]; 1 mg/kg I.P.): 72 ± 12 min
- Stereotypy Score (rats [2]; 1 mg/kg P.O.): 0
- Duration of Effect (stereotypy) (rats [2]; 1 mg/kg P.O.): 0 min
- Stereotypy Score (rats [2]; 1 mg/kg S.C.): 17.5 ± 0.4
- Duration of Effect (stereotypy) (rats [2]; 1 mg/kg S.C.): 70 ± 5 min
- dependence of duration of action on dose (rats [2]; i.p.): much less tendency for duration to increase with dose

Compound: CC(C)C[C@H]1C(=O)N2CCC[C@H]2[C@]2(O)O[C@](NC(=O)[C@@H]3C=C4c5cccc6[nH]c(Br)c(c56)C[C@H]4N(C)C3)(C(C)C)C(=O)N12 [bromocriptine]
- effect on output of gastric acid (gastric acid output): diminished the output of gastric acid
